Measured values: patent US7626044B2, “Triptolide derivatives and their uses” (priority 2002, dated 2009)
≈ marks a conversion by molar mass, not a printed value.

Legend:
[1] = test system: splenocytes (C57BL/6 responder, Balb/c stimulator); assay: MLR response of C57BL/6 against Balb/c; assay type: cell-based, mouse
Description: C57BL/6 and Balb/c mice were sacrificed by cervical dislocation, and spleens were collected under sterile conditions then teased through a nylon mesh. Erythrocytes were lysed. Cells were washed and resuspended at 6×10^6/ml in RPMI-1640 media with 10% FBS.
Splenocytes from responder (C57BL/6) were mixed with stimulator (Balb/c), which was pretreated with ^60Co Gamma Ray irradiation (3000 rads).
Stimulator and responder cells were cultured in a 200 μl volume in 96-well plate in the presence of drugs or medium, at 37° C., 5% CO2 in a humidified incubator, for 3, 4, and 5 days, respectively. In the last 8 h of incubation, cells were treated with 25 μl (3.8×10^10 Bq) of [^3H]Thymidine.
At the end of incubation, pulsed cells were harvested on a glass filter using a cell harvester ([…]96®, TOMTEC) and allowed to dry. Incorporation of radioactive thymidine was determined by using liquid Scintillation and Luminescence Counters (MicroBeta Trilux®, PerkinElmer).

[2] = test system: rat adjuvant arthritis; assay: Rat adjuvant arthritis (AA), drug prevention; assay type: in vivo
Description: SD rats were immunized on day 0 by intradermal injection of Complete Freund's adjuvant (CFA), containing 10 mg heat-inactivated BCG in 1 ml paraffin oil, into the left hind paw in 0.1 ml for each rat. Right hind paw volume was determined before immunization (basic value, day 0) and repeated every 4 days from day 12. The polyarthritis severity was graded on a scale of 0-4: 0=no swelling; 1=isolated phalanx joint involvement; 2=involvement of phalanx joint and digits; 3=involvement of the entire region down to the ankle; 4=involvement of entire paw, including ankle. The maximum joint score was 16 for each rat.
Lymphocyte proliferation assay: Splenocytes were prepared aseptically from AA rat at day 28 and resuspended in RPMI-1640 medium supplemented with 10% fetal bovine serum.
5×10^5 cells each well were inoculated into 96-well plate with ConA or LPS in a final volume of 200 μl. Cells were cultured in 5% CO2 incubator at 37° C. for 48 h. Cells were pulsed with 1.9×10^10 Bq/well of [^3H]-thymidine 7-8 h before harvest. After the culture finished, cells were harvested onto glass fiber filters and the incorporated radioactivity was counted by a Beta Scintillator (MicroBeta Trilux, PerkinElmer Life Sciences).

[3] = test system: rat adjuvant arthritis; assay: Rat adjuvant arthritis (AA), therapeutic effect; assay type: in vivo; settings: i.p. for 14 days from day 19; especially at 2 mg/Kg/d
Description: Rats were immunized on day 0 by intradermal injection of Complete Freund's adjuvant (CFA), containing 10 mg heat-inactivated BCG in 1 ml paraffin oil, into the left hind paw in 0.1 ml for each rat. Inflammatory polyarthritis was induced in all immunized rats. Swelling in left paw and polyarthritic symptoms were seen from day 1, lasted for 4 days, and then diminished. Swelling in the same paw occurred again from day 8, reached the peak at day 16. The secondary symptoms, including the right hind paw swelling and polyarthritis, were seen from day 12. The polyarthritis severity was graded on a scale of 0-4: 0=no swelling; 1=isolated phalanx joint involvement; 2=involvement of phalanx joint and digits; 3=involvement of the entire region down to the ankle; 4=involvement of entire paw, including ankle.
Right hind paw volume was determined before immunization (basic value, day 0) and repeated every 3 days. Animals were sacrificed on day 15, and thymus and spleen were harvested for thymus and spleen index assessment. Result: The secondary symptoms were established when the right hind paw severely swelled 19 days after adjuvant injection. […] Comparing with AA model rat, LLDT-8 treatment, especially at dose of 2 mg/Kg/d, markedly withdrew the symptoms (FIG. 16 and FIG. 17).

[4] = test system: SGC-7901 (human gastric adenocarcinoma cell); assay: Tumor cell proliferation, SGC-7901; assay type: cell-based; settings: read-out: Inhibitory effect on tumor cell proliferation IC50
[5] = test system: MCF-7 (human breast cancer cell); assay: Tumor cell proliferation, MCF-7; assay type: cell-based; settings: read-out: Inhibitory effect on tumor cell proliferation IC50
[6] = test system: mice; assay: Acute toxicity (LD50) test in mice, intraperitoneal injection; assay type: in vivo, mouse; settings: single intraperitoneal injection
Description: Mice were single administered with LLDT-8 by intraperitoneal injection, and observed for clinical signs of toxicity immediately and the following 14 days. Necropsy was performed on all animals that died and on all survivors at the end of the 2-week study. Death was seen from the next day after treatment and reached a peak at the 2-4 day. All gross pathological changes should be recorded for each animal. There was no gender difference in survival.
LLDT-8 is much less toxic than its parent compound, […].

## CC(C)[C@]12O[C@H]1[C@@H]1O[C@]13[C@]1(O[C@H]1C[C@@]1(O)C4=C(CC[C@]31C)C(=O)OC4)[C@@H]2O [LLDT-8, (5R)-5-hydroxytriptolide]
[1]; C57BL/6 against Balb/c
  ED50 (MLR response): 0.6 ng/mL (≈ 1.59 nM)
[1]; C57BL/6 against Balb/c, read-out: ED50 (MLR response)
  EC50: 1.6 nM
[1]; compared with CsA
  potency higher than CsA (MLR): about 2.5 fold
[2]; LLDT-8 3, 1 and 0.2 mg/Kg/d, CsA 10 mg/Kg/d
  body weight decrease in AA rat: abrogation of body weight decrease
[2]; compared with AA model group
  immune cell infiltration, synovial tissue proliferation, cartilage erosion: marked decrease of immune cell infiltration, smaller degree of synovial tissue proliferation, and less cartilage erosion
[2]; i.p. day −2 to day 28, LLDT-8 3, 1 and 0.2 mg/Kg/d, CsA 10 mg/Kg/d
  right hind paw swelling and polyarthritic symptoms: diminished the right hind paw swelling and polyarthritic symptoms
[2]; score 0-4 per paw
  polyarthritis severity: amelioration of established polyarthritis
[2]; splenocytes from AA rat at day 28
  proliferation of B splenocytes induced by LPS: inhibited the proliferation of B splenocytes induced by LPS
[3]
  polyarthritic symptoms (therapeutic): effectively cured the polyarthritic symptoms
[4]
  IC50: 43 nM
[5]
  IC50: 350 nM
[6]; mice
  LD50 95% confidence limits: 7.7 to 11.3 mg/kg
[6]; mice, 14 days, Bliss' method
  LD50: 9.3 mg/kg
[6]
  pathological changes in tissues by gross necropsy in survivors at day 15: No significant pathological changes
